From patent publication US20240316171A1, “COMPOSITIONS AND METHODS FOR TARGETED IMMUNOTHERAPY” (Dana-Farber Cancer Institute, Inc., priority 2018, published 2024) come the findings set out here.

Where two headings read alike, the source gives them in different places.

Data set [1] can be described thus: Uncaging in samples not treated with H2O2. The class given is physicochemical. The text has this: Fluorescence-detected HPLC confirmed that H2O2 reaction with compound 3 produced the desired product (4). […] Addition of 0.5M EDTA, pH 8.0 (Ultrapure Grade, Boston BioProducts) to the samples remedied the undesired uncaging of the compounds.
Data set [2] can be described thus: Uncaging of compound 1 with hydrogen peroxide (fluorescence, HPLC). Particulars: relatively high H2O2 concentrations (100 mM), HPLC analysis of products. Here is the method: Hydrogen peroxide is expected to uncage compound 1 to produce compound 2. […] 20 μM compound 1 samples were prepared by 1:100 dilution of stock into 50 mM HEPES pH 7 buffer and the reaction started by […] to give final concentrations of 0.3, 0.03 or 0.003 percent. The concentration of the 30% stock H2O2 was confirmed by measuring the absorbance at 240 nm using an extinction coefficient of 43.6 M^−1 cm^−1.
A time-course of the kinetic response of compound 1 to H2O2 at 100 mM H2O2 is illustrated in FIG. 10. Multiple (3) peaks, including compound 1, were observed by HPLC. […] The possible side products are shown below.

Data set [3] is described as follows: Stock solutions/solubility. Type of data set: physicochemical. Particulars: thermodynamic from solid. As to the method:
Compound 1 was not soluble in buffer solution 50 mM 4-(2-hydroxyethyl)-1-piperazineethanesulfonic acid (HEPES) pH 7 at 2 mg/ml at room temperature overnight. In contrast, DMSO readily dissolved compound 1 at 2 mg/ml forming a clear solution. Compound 2 dissolved immediately at 1.5 mg/ml in buffer solution 50 mM HEPES pH 7 forming a yellow solution.

[4] abbreviates: 50 mM HEPES buffer, aqueous buffer, 50 mM HEPES pH 7, compound 1 at room temperature overnight, read-out: solubility in buffer solution.

As for `CC1(C)[C@@H]2C[C@H]1C1OB(c3ccc4c(c3)Oc3cc(B5OC6C[C@@H]7C[C@@H](C7(C)C)[C@]6(C)O5)ccc3C43OC(=O)c4cc(NC(=O)CCOCCOCCNC(=O)CCN5C(=O)CC(SC[C@H](N)C(=O)O)C5=O)ccc43)O[C@@]1(C)C2` (stereo partly drawn) [Compound 3, S-(2,5-dioxo-1-(3-oxo-3-((2-(2-(3-oxo-3-((3-oxo-3′-((3aS,4S,6S)-3a,5,5-trimethylhexahydro-4,6-methanobenzo[d][1,3,2]dioxaborol-2-yl)-6′-((4R,6R,7aS)-5,5,7a-trimethylhexahydro-4,6-methanobenzo[d][1,3,2]dioxaborol-2-yl)-3H-spiro[isobenzofuran-1,9′-xanthen]-5-yl)amino)propoxy)ethoxy)ethyl)amino)propyl)pyrrolidin-3-yl)cysteine], in data set [1], the “uncaging without H2O2” value is “Slow uncaging”.

What is called solubility is the concentration that dissolves in the medium under given conditions. As for `CC1(C)[C@@H]2CC3OB(c4ccc5c(c4)Oc4cc(B6OC7C[C@@H]8C[C@@H](C8(C)C)[C@]7(C)O6)ccc4C54OC(=O)c5cc(NC(=O)CCOCCOCCNC(=O)CCN6C(=O)C=CC6=O)ccc54)O[C@@]3(C)[C@H]1C2` (stereo partly drawn) [Compound 1, 3-(2,5-dioxo-2,5-dihydro-1H-pyrrol-1-yl)-N-(2-(2-(3-oxo-3-((3-oxo-3′,6′-bis((3aS,4S,6S)-3a,5,5-trimethylhexahydro-4,6-methanobenzo[d][1,3,2]dioxaborol-2-yl)-3H-spiro[isobenzofuran-1,9′-xanthen]-5-yl)amino)propoxy)ethoxy)ethyl)propanamide], the “stability of maleimide moiety in the presence of H2O2” value in data set [2] is reported as “maleimide moiety is unstable”. The solubility is under 2000 µg/mL in data set [3] (setting [4]) and at least 2000 µg/mL in data set [3] (organic solvent or mixture, DMSO, clear solution, read-out: solubility in DMSO). Further, the “uncaging without H2O2” value in data set [1] is “Slow uncaging”.

On to `O=C(CCN1C(=O)C=CC1=O)NCCOCCOCCC(=O)Nc1ccc2c(c1)C(=O)OC21c2ccc(O)cc2Oc2cc(O)ccc21` [Compound 2, N-(3′,6′-dihydroxy-3-oxo-3H-spiro[isobenzofuran-1,9′-xanthen]-5-yl)-3-(2-(2-(3-(2,5-dioxo-2,5-dihydro-1H-pyrrol-1-yl)propanamido)ethoxy)ethoxy)propanamide], for which the solubility in data set [3] (setting [4]) was at least 1500 µg/mL.
